{"source": "patent US9700047B2", "about": "“Macrocyclic picolinamides as fungicides” (Dow AgroSciences LLC, priority 2014, dated 2017)", "key": {"Rhyncosporium secalis": {"test_system": "Rhyncosporium secalis", "experiment": "Barley scald (RHYNSE) disease control on barley seedlings", "assay_type": "in vivo", "conditions": "100 ppm; 1 Day Protectant", "procedure": "All fungicides were evaluated using the aforementioned method for their activity vs. all target diseases, unless stated otherwise. Wheat leaf blotch and brown rust activity were also evaluated using track spray applications, in which case the fungicides were formulated as EC formulations, containing 0.1% Trycol 5941 in the spray solutions. Barley seedlings (variety Harrington) were propagated in soil-less Metro mix, with each pot having 8 to 12 plants, and used in the test when first leaf was fully emerged. Test plants were inoculated by an aqueous spore suspension of Rhyncosporium secalis 24 hr after fungicide treatments. After inoculation the plants were kept in a dew room at 20° C. with 100% relative humidity for 48 hr. The plants were then transferred to a greenhouse set at 20° C. for disease to develop. Fungicide formulation, application and disease assessment on the sprayed leaves followed the procedures as described in the Example A."}, "[1]": {"test_system": "Puccinia triticina; Synonym: Puccinia recondita f sp. tritici", "experiment": "Wheat brown rust (PUCCRT) disease control on wheat seedlings", "assay_type": "in vivo", "conditions": "for pest or weed control at 121.5 g/ha: Low Volume activity at 121.5 g/H; for pest or weed control at 100 ppm: High Volume activity at 100 ppm", "procedure": "All fungicides were evaluated using the aforementioned method for their activity vs. all target diseases, unless stated otherwise. Wheat leaf blotch and brown rust activity were also evaluated using track spray applications, in which case the fungicides were formulated as EC formulations, containing 0.1% Trycol 5941 in the spray solutions. Wheat plants (variety Yuma) were grown from seed in a greenhouse in 50% mineral soil/50% soil-less Metro mix until the first leaf was fully emerged, with 7-10 seedlings per pot. These plants were inoculated with an aqueous spore suspension of Puccinia triticina either prior to or after fungicide treatments. […] The plants were then transferred to a greenhouse set at 24° C. for disease to develop. Fungicide formulation, application and disease assessment followed the procedures as described in the Example A."}, "[2]": {"conditions": "24 h, 1 Day Protectant, read-out: PUCCRT 1DP % Control rating"}, "[3]": {"conditions": "72 h, 3 Day Curative, read-out: PUCCRT 3DC % Control rating"}}, "note": "Where two headings read alike, the source gives them in different places."}
{"smiles": "CCCC[C@@H]1[C@@H](Cc2ccc(C(F)(F)F)cc2)CCC[C@H](NC(=O)c2nccc(OC)c2OCOC(C)=O)C(=O)O[C@H]1C", "note": "[Compound 3]", "values": [{"measurement": "RHYNSE 1DP Disease Control rating", "setting": "Rhyncosporium secalis", "value": "B (≦70)"}, {"measurement": "pest or weed control at 121.5 g/ha", "setting": "[1]; [2]", "value": "> 70", "unit": "%"}, {"measurement": "pest or weed control at 121.5 g/ha", "setting": "[1]; [3]", "value": "< 70", "unit": "%"}]}
{"smiles": "COc1ccnc(C(=O)N[C@H]2CCC[C@H](CCCc3ccccc3)[C@@H](CCc3ccccc3)[C@H](C)OC2=O)c1O", "note": "[Compound 85]", "values": [{"measurement": "pest or weed control at 100 ppm", "setting": "[1]; [2]", "value": "> 70", "unit": "%"}, {"measurement": "pest or weed control at 100 ppm", "setting": "[1]; [3]", "value": "< 70", "unit": "%"}]}
{"smiles": "COc1ccnc(C(=O)N[C@H]2CCC[C@H](Cc3ccc(C(F)(F)F)cc3)[C@@H](Cc3ccc(F)cc3)[C@H](C)OC2=O)c1O", "note": "[Compound 86]", "values": [{"measurement": "pest or weed control at 100 ppm", "setting": "[1]; [2]", "value": "> 70", "unit": "%"}, {"measurement": "pest or weed control at 100 ppm", "setting": "[1]; [3]", "value": "< 70", "unit": "%"}]}
{"smiles": "COc1ccnc(C(=O)N[C@H]2CCC[C@H](CCC(C)C)[C@@H](C3CCCC3)[C@H](C)OC2=O)c1O", "note": "[Compound 87]", "values": [{"measurement": "pest or weed control at 100 ppm", "setting": "[1]; [2]", "value": "> 70", "unit": "%"}, {"measurement": "pest or weed control at 100 ppm", "setting": "[1]; [3]", "value": "< 70", "unit": "%"}]}
{"smiles": "COc1ccnc(C(=O)N[C@H]2CCC[C@H](Cc3ccccc3)[C@@H](CCC(C)C)[C@H](C)OC2=O)c1O", "note": "[Compound 88]", "values": [{"measurement": "pest or weed control at 100 ppm", "setting": "[1]; [2]", "value": "> 70", "unit": "%"}, {"measurement": "pest or weed control at 100 ppm", "setting": "[1]; [3]", "value": "< 70", "unit": "%"}]}
{"smiles": "COc1ccnc(C(=O)N[C@H]2CCC[C@H](Cc3ccccc3)[C@@H](c3ccccc3)[C@H](C)OC2=O)c1O", "note": "[Compound 90]", "values": [{"measurement": "pest or weed control at 100 ppm", "setting": "[1]; [2]", "value": "> 70", "unit": "%"}, {"measurement": "pest or weed control at 100 ppm", "setting": "[1]; [3]", "value": "> 70", "unit": "%"}]}
{"smiles": "CCC[C@H]1CCC[C@H](NC(=O)c2nccc(OC)c2O)C(=O)O[C@@H](C)[C@@H]1c1ccccc1", "note": "[Compound 91]", "values": [{"measurement": "pest or weed control at 100 ppm", "setting": "[1]; [2]", "value": "> 70", "unit": "%"}, {"measurement": "pest or weed control at 100 ppm", "setting": "[1]; [3]", "value": "< 70", "unit": "%"}]}
{"smiles": "COc1ccnc(C(=O)N[C@H]2CCC[C@H](CCCc3ccccc3)[C@@H](CC(C)C)[C@H](C)OC2=O)c1O", "note": "[Compound 92]", "values": [{"measurement": "pest or weed control at 100 ppm", "setting": "[1]; [2]", "value": "> 70", "unit": "%"}, {"measurement": "pest or weed control at 100 ppm", "setting": "[1]; [3]", "value": "< 70", "unit": "%"}]}
{"smiles": "COc1ccnc(C(=O)N[C@H]2CCC[C@H](CCCc3ccccc3)[C@@H](Cc3ccc(OC(F)(F)F)cc3)[C@H](C)OC2=O)c1O", "note": "[Compound 93]", "values": [{"measurement": "pest or weed control at 100 ppm", "setting": "[1]; [2]", "value": "< 70", "unit": "%"}, {"measurement": "pest or weed control at 100 ppm", "setting": "[1]; [3]", "value": "< 70", "unit": "%"}]}
{"smiles": "COc1ccnc(C(=O)N[C@H]2CCC[C@H](CC3CC3)[C@@H](Cc3ccccc3)[C@H](C)OC2=O)c1O", "note": "[Compound 94]", "values": [{"measurement": "pest or weed control at 121.5 g/ha", "setting": "[1]; [2]", "value": "> 70", "unit": "%"}, {"measurement": "pest or weed control at 121.5 g/ha", "setting": "[1]; [3]", "value": "< 70", "unit": "%"}]}
{"smiles": "COc1ccnc(C(=O)N[C@H]2CCC[C@H](Cc3ccccc3)[C@@H](Cc3ccc(F)cc3)[C@H](C)OC2=O)c1O", "note": "[Compound 95]", "values": [{"measurement": "pest or weed control at 121.5 g/ha", "setting": "[1]; [2]", "value": "> 70", "unit": "%"}, {"measurement": "pest or weed control at 121.5 g/ha", "setting": "[1]; [3]", "value": "< 70", "unit": "%"}]}
{"smiles": "COc1ccnc(C(=O)N[C@H]2CCC[C@H](Cc3ccc(C(F)(F)F)cc3)[C@@H](Cc3ccc(OC(F)(F)F)cc3)[C@H](C)OC2=O)c1O", "note": "[Compound 96]", "values": [{"measurement": "pest or weed control at 100 ppm", "setting": "[1]; [2]", "value": "< 70", "unit": "%"}, {"measurement": "pest or weed control at 100 ppm", "setting": "[1]; [3]", "value": "< 70", "unit": "%"}]}
{"smiles": "COc1ccnc(C(=O)N[C@H]2CCC[C@H](Cc3ccccc3)[C@@H](Cc3ccc(OC(F)(F)F)cc3)[C@H](C)OC2=O)c1O", "note": "[Compound 97]", "values": [{"measurement": "pest or weed control at 100 ppm", "setting": "[1]; [2]", "value": "> 70", "unit": "%"}, {"measurement": "pest or weed control at 100 ppm", "setting": "[1]; [3]", "value": "< 70", "unit": "%"}]}
{"smiles": "COc1ccnc(C(=O)N[C@H]2CCC[C@H](CCCc3ccccc3)[C@@H](Cc3ccccc3)[C@H](C)OC2=O)c1O", "note": "[Compound 98]", "values": [{"measurement": "pest or weed control at 100 ppm", "setting": "[1]; [2]", "value": "> 70", "unit": "%"}, {"measurement": "pest or weed control at 100 ppm", "setting": "[1]; [3]", "value": "< 70", "unit": "%"}]}
